Test results as given in patent US20220411414A1, “INHIBITORS FOR THE B-CATENIN/B-CELL LYMPHOMA 9 (BCL9) PROTEIN-PROTEIN INTERACTION” (H. LEE MOFFITT CANCER CENTER AND RESEARCH INSTITUTE, INC., priority 2018, published 2022).

Legend:
β-catenin/BCL9 = target: T1, β-catenin/BCL9 (Homo sapiens, UniProt P35222); assay: AlphaScreen competitive inhibition assay, β-catenin/BCL9 PPI; assay type: binding; settings: for Ki: AlphaScreen
T1 construct: Full-length β-catenin and (residues 1-781) were cloned into a pET-28b vector carrying a C-terminal 6× histidine; made in house; host or cells: E. coli BL21 DE3
T1 sequence (P35222 1-781): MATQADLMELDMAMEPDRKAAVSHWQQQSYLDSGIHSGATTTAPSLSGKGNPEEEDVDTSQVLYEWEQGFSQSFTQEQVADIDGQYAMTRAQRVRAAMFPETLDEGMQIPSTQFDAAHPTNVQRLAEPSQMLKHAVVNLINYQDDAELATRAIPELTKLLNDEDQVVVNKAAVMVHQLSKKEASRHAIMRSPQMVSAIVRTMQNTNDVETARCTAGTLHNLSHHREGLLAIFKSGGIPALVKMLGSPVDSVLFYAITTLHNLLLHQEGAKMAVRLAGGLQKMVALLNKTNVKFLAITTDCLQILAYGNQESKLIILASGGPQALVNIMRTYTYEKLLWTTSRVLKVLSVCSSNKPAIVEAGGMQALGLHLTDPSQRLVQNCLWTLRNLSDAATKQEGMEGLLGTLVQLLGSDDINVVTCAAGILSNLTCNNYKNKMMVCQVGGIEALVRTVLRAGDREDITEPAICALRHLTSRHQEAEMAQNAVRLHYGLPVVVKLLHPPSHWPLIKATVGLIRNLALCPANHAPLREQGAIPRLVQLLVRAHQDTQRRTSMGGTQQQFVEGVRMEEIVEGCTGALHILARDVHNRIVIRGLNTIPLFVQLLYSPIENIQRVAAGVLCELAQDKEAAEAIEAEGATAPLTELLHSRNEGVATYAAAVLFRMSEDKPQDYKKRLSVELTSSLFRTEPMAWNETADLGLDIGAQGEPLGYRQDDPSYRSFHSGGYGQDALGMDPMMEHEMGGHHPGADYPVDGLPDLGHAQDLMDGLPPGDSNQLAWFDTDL
Source text: The biochemical AlphaScreen assay was employed to evaluate the inhibitory potency of these two final products for disruption of the β-catenin/BCL9 PPI.
BCL9 peptide synthesis and purification. Human BCL9 (residues 350-375), N-terminally biotinylated human BCL9 (residues 350-375), human E-cadherin (residues 824-877), and N-terminally biotinylated human E-cadherin (residues 824-877) were synthesized by InnoPep Inc. (San Diego, Calif., www.innopep.com). All synthesized peptides were purified by HPLC with purity >95%. The structures were validated by LC/MS. The sequences are as follows (Ahx, 6-aminohexanoic acid).
For the β-catenin/BCL9 assay, 5 nM of biotinylated BCL9 and 40 nM of His6-tagged β-catenin were incubated in assay buffer at 4° C. for 30 min. For the β-catenin/E-cadherin assay, 10 nM of biotinylated human E-cadherin, and 40 nM of His6-tagged human β-catenin were added and incubated in assay buffer at 4° C. for 30 min. Different concentrations of the tested peptide or inhibitor were added and incubated in 20 μL assay buffer at 4° C. for another 1.5 h. All of the above assay plates were covered and gently mixed on an orbital shaker. The donor and acceptor beads were then added to the plates to a final concentration of 10 μg/mL in 25 μL assay buffer. The mixture was incubated for 1 h at 4° C. before detection. The IC50 value was determined by nonlinear least-square analysis of GraphPad Prism 5.0. The inhibition constant (Ki) values were derived from the IC50 values using a method reported by Nikolovska-Coleska et al (Nikolovska-Coleska, Z.; Wang, R.; Fang, X.; Pan, H.; Tomita, Y.; Li, P.; Roller, P. P.; Krajewski, K.; Saito, N. G.; Stuckey, J. A.; Wang, S. Development and optimization of a binding assay for the XIAP BIR3 domain using fluorescence polarization, Anal. Biochem. 2004, 332, 261-273.). The assays were conducted under the conditions required by Nikolovska-Coleska et al.'s equation for determining the Ki values. All of the experiments were performed in triplicate. The results were expressed as mean±standard deviation. The inhibitor selectivity for, β-catenin/BCL9 over, β-catenin/E-cahderin interactions was defined as the ratio of the respective Ki value of β-catenin/E-cadherin interactions over that of β-catenin/BCL9 interactions.

[1] = system: FOPFlash (three mutant Tcf4 binding sites) luciferase reporter; assay: FOPFlash luciferase reporter assay; assay type: cell-based; settings: FIG. 1
Method: Cell transfection and luciferase assay. FuGENE6 (E269A, Promega) 96 well plate format was used for the transfection of HEK293 and SW480 cells according to the manufacturer's instruction. HEK293 cells were co-transfected with 45 ng of TOPFlash or FOPFlash reporter gene, 135 ng pcDNA3.1-β-catenin, and 20 ng of pCMV-RL normalization reporter gene. SW480 cells were co-transfected with 60 ng of the TOPFlash or FOPFlash reporter gene and 40 ng of pCMV-RL normalization reporter. Cells were cultured in DMEM and 10% FBS at 37° C. for 24 h, and different concentrations of inhibitors or DMSO was added. After 24 h, the luciferase reporter activity was measured using the Dual-Glo system (E2940, Promega). Normalized luciferase activity in response to the treatment with 4 and 5 was compared with that obtained from the cells treated with DMSO. Experiments were performed in triplicate.

[2] = system: protein expression of cyclin D1, c-myc, ABC, total β-catenin; assay: Western blot analysis in SW480 cells; assay type: cell-based; settings: SW480, 24 h, FIG. 3
Method: Protein expression levels of cyclin D1, c-myc, the active form of β-catenin (ABC), and total β-catenin in SW480 cells were examined by Western blot analysis (FIG. 3). […] Western blotting. SW480 cells at 1×10^6 cells/[…] were treated with different concentrations of 4 for 24 h. Cells were lysed in buffer containing 50 mM Tris (pH 7.4), 150 mM NaCl, 1% Nonidet P-40, 0.5% sodium deoxycholate, 0.1% SDS, and protease inhibitors. After centrifugation at 12,000 rpm for 20 min at 4° C., the supernatant was loaded onto an 8% SDS polyacrylamide gel for electrophoretic analysis. Separated proteins were transferred onto nitrocellulose membranes for immunoblot analysis. The antibodies against total β-catenin (610153, BD Biosciences, most of which is phosphorylated β-catenin and represents the E-cadherin bound pool), the active form of β-catenin (ABC, 05-665, EMD Millipore, dephosphorylated at positions S37 and T41 of β-catenin), cyclin D1 (sc-853, Santa Cruz Biotechnology, Inc.), c-myc (D84C12, Cell Signaling), and β-tubulin (sc-55529, Santa Cruz Biotechnology, Inc) were incubated with the membranes overnight at 4° C. respectively. IRDye 680LT goat anti-mouse IgG (827-11080, LiCOR) or IRDye 800CW goat anti-rabbit IgG (827-08365, LiCOR) was used as the secondary antibody. The images were detected by the Odyssey Infrared Imaging System (LiCOR). Experiments were performed in duplicate.

Structure (SMILES): Cl.Cl.O=C(Nc1ccc(O[C@@H]2CCNC2)c(-c2cccc(-c3nn[nH]n3)c2)c1)c1ccc(O[C@H]2CCNC2)c(-c2ccc(F)c(F)c2)c1 [Compound 4, 3′,4′-difluoro-6-(((S)-pyrrolidin-3-yl)oxy)-N-(6-(((R)-pyrrolidin-3-yl)oxy)-3′-(2H-tetrazol-5-yl)-[1,1′-biphenyl]-3-yl)-[1,1′-biphenyl]-3-carboxamide dihydrochloride]
- selectivity for β-catenin/BCL9 over β-catenin/E-cadherin PPIs (in words) (β-catenin/BCL9; AlphaScreen biochemical assay): exceptionally high selectivity
- Ki (β-catenin/BCL9; Table 1, mean ± SD (n = 3)): 470 ± 140 nM
- Ki (β-catenin/BCL9; Table 2, mean ± SD (n = 3)): 470 ± 140 nM
- Selectivity BCL9/cadherin (β-catenin/BCL9; ratio of Ki β-catenin/E-cadherin over Ki β-catenin/BCL9): >1900
- FOPFlash luciferase activity [1]: did not inhibit
- E-cadherin-bound β-catenin (total β-catenin) [2]: had no effect
- activated β-catenin (ABC) in the cell nucleus [2]: reduced
- protein expression level of c-myc [2]: significantly reduced
- protein expression level of cyclin D1 [2]: significantly reduced
